Reference: US10206394B2, “Herbicidal compounds” (Syngenta Participations AG, priority 2014, dated 2019)
Where two headings read alike, the source gives them in different places.

Tests used:
Assay in all cases: Glasshouse assay for herbicidal activity (pre- and post-emergence), percentage phytotoxicity
Assay type in all cases: in vivo
[1] = tested on: Alopecurus myosuroides (ALOMY); conditions: Alopecurus myosuroides
Summary of the method: (§1)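 Herbicide was applied to potted plants sown in standard soil, one day after sowing for PRE and after about 12 days for POST. Visual percentage damage ratings followed at 15 DAA (POST) and 20 DAA (PRE).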

Avena fatua (AVEFA) = conditions: Avena fatua
Summary of the method: as §1

[2] = tested on: Echinochloa crus-galli (ECHCG); conditions: Echinochloa crus-galli
Summary of the method: as §1

Lolium perenne (LOLPE) = conditions: Lolium perenne
Summary of the method: as §1

[3] = post-emergence, 360 h, 250 g/ha, post-emergence, 15 DAA, visual assessment (100%=total damage, 0%=no damage), read-out: Post-emergence herbicidal activity (percentage phytotoxicity) ALOMY POST
[4] = pre-emergence, 480 h, 250 g/ha, pre-emergence, 20 DAA, visual assessment (100%=total damage, 0%=no damage), read-out: Pre-emergence herbicidal activity (percentage phytotoxicity) ALOMY PRE
[5] = post-emergence, 360 h, 250 g/ha, post-emergence, 15 DAA, visual assessment (100%=total damage, 0%=no damage), read-out: Post-emergence herbicidal activity (percentage phytotoxicity) AVEFA POST
[6] = pre-emergence, 480 h, 250 g/ha, pre-emergence, 20 DAA, visual assessment (100%=total damage, 0%=no damage), read-out: Pre-emergence herbicidal activity (percentage phytotoxicity) AVEFA PRE
[7] = post-emergence, 360 h, 250 g/ha, post-emergence, 15 DAA, visual assessment (100%=total damage, 0%=no damage), read-out: Post-emergence herbicidal activity (percentage phytotoxicity) ECHCG POST
[8] = pre-emergence, 480 h, 250 g/ha, pre-emergence, 20 DAA, visual assessment (100%=total damage, 0%=no damage), read-out: Pre-emergence herbicidal activity (percentage phytotoxicity) ECHCG PRE
[9] = post-emergence, 360 h, 250 g/ha, post-emergence, 15 DAA, visual assessment (100%=total damage, 0%=no damage), read-out: Post-emergence herbicidal activity (percentage phytotoxicity) LOLPE POST
[10] = pre-emergence, 480 h, 250 g/ha, pre-emergence, 20 DAA, visual assessment (100%=total damage, 0%=no damage), read-out: Pre-emergence herbicidal activity (percentage phytotoxicity) LOLPE PRE

Cc1cc(-n2cc(Cl)cn2)cc(C)c1C1C(=O)CC(CC(=O)NCC2CC2)C1=O (centres unmarked) [Compound B227]
pest or weed control at 250 g/ha ([1]; post-emergence, 360 h, POST-emergence, rate 250 g/ha, visual score 15 DAA (100%=total damage, 0%=no damage), read-out: Post-emergence herbicidal activity (percentage phytotoxicity) ALOMY POST): 100%
pest or weed control at 250 g/ha ([1]; pre-emergence, 480 h, PRE-emergence, rate 250 g/ha, visual score 20 DAA (100%=total damage, 0%=no damage), read-out: Pre-emergence herbicidal activity (percentage phytotoxicity) ALOMY PRE): 80%
pest or weed control at 250 g/ha (Avena fatua (AVEFA); post-emergence, 360 h, POST-emergence, rate 250 g/ha, visual score 15 DAA (100%=total damage, 0%=no damage), read-out: Post-emergence herbicidal activity (percentage phytotoxicity) AVEFA POST): 100%
pest or weed control at 250 g/ha (Avena fatua (AVEFA); pre-emergence, 480 h, PRE-emergence, rate 250 g/ha, visual score 20 DAA (100%=total damage, 0%=no damage), read-out: Pre-emergence herbicidal activity (percentage phytotoxicity) AVEFA PRE): 80%
pest or weed control at 250 g/ha ([2]; post-emergence, 360 h, POST-emergence, rate 250 g/ha, visual score 15 DAA (100%=total damage, 0%=no damage), read-out: Post-emergence herbicidal activity (percentage phytotoxicity) ECHCG POST): 100%
pest or weed control at 250 g/ha ([2]; pre-emergence, 480 h, PRE-emergence, rate 250 g/ha, visual score 20 DAA (100%=total damage, 0%=no damage), read-out: Pre-emergence herbicidal activity (percentage phytotoxicity) ECHCG PRE): 80%
pest or weed control at 250 g/ha (Lolium perenne (LOLPE); post-emergence, 360 h, POST-emergence, rate 250 g/ha, visual score 15 DAA (100%=total damage, 0%=no damage), read-out: Post-emergence herbicidal activity (percentage phytotoxicity) LOLPE POST): 90%
pest or weed control at 250 g/ha (Lolium perenne (LOLPE); pre-emergence, 480 h, PRE-emergence, rate 250 g/ha, visual score 20 DAA (100%=total damage, 0%=no damage), read-out: Pre-emergence herbicidal activity (percentage phytotoxicity) LOLPE PRE): 80%

COc1ccc(NC(=O)CC2CC(=O)C(c3c(C)cc(C)cc3C)C2=O)cc1OC (centres unmarked) [Compound B2]
pest or weed control at 250 g/ha [1, 3]: 40%
pest or weed control at 250 g/ha [1, 4]: 40%
pest or weed control at 250 g/ha (Avena fatua (AVEFA); [5]): 30%
pest or weed control at 250 g/ha (Avena fatua (AVEFA); [6]): 60%
pest or weed control at 250 g/ha [2, 7]: 10%
pest or weed control at 250 g/ha [2, 8]: 80%
pest or weed control at 250 g/ha (Lolium perenne (LOLPE); [9]): 30%
pest or weed control at 250 g/ha (Lolium perenne (LOLPE); [10]): 80%

Cc1cc(-c2nc(C#N)cs2)cc(C)c1C1C(=O)CC(CC(=O)NC(C)(C)C)C1=O (centres unmarked) [Compound B30]
pest or weed control at 250 g/ha [1, 3]: 70%
pest or weed control at 250 g/ha [1, 4]: 60%
pest or weed control at 250 g/ha (Avena fatua (AVEFA); [5]): 90%
pest or weed control at 250 g/ha (Avena fatua (AVEFA); [6]): 70%
pest or weed control at 250 g/ha [2, 7]: 80%
pest or weed control at 250 g/ha [2, 8]: 70%
pest or weed control at 250 g/ha (Lolium perenne (LOLPE); [9]): 30%
pest or weed control at 250 g/ha (Lolium perenne (LOLPE); [10]): 70%

C=CCNC(=O)CC1CC(=O)C(c2c(C)cc(-c3ncc(Cl)cn3)cc2C)C1=O (centres unmarked) [Compound B350]
pest or weed control at 250 g/ha ([1]; post-emergence, 360 h, Rate 250 g/ha, post-emergence, visual assessment 15 DAA, 100%=total damage, 0%=no damage, read-out: Post-emergence herbicidal activity (percentage phytotoxicity) ALOMY POST): 100%
pest or weed control at 250 g/ha ([1]; pre-emergence, 480 h, Rate 250 g/ha, pre-emergence, visual assessment 20 DAA, 100%=total damage, 0%=no damage, read-out: Pre-emergence herbicidal activity (percentage phytotoxicity) ALOMY PRE): 100%
pest or weed control at 250 g/ha (Avena fatua (AVEFA); post-emergence, 360 h, Rate 250 g/ha, post-emergence, visual assessment 15 DAA, 100%=total damage, 0%=no damage, read-out: Post-emergence herbicidal activity (percentage phytotoxicity) AVEFA POST): 100%
pest or weed control at 250 g/ha (Avena fatua (AVEFA); pre-emergence, 480 h, Rate 250 g/ha, pre-emergence, visual assessment 20 DAA, 100%=total damage, 0%=no damage, read-out: Pre-emergence herbicidal activity (percentage phytotoxicity) AVEFA PRE): 90%
pest or weed control at 250 g/ha ([2]; post-emergence, 360 h, Rate 250 g/ha, post-emergence, visual assessment 15 DAA, 100%=total damage, 0%=no damage, read-out: Post-emergence herbicidal activity (percentage phytotoxicity) ECHCG POST): 100%
pest or weed control at 250 g/ha ([2]; pre-emergence, 480 h, Rate 250 g/ha, pre-emergence, visual assessment 20 DAA, 100%=total damage, 0%=no damage, read-out: Pre-emergence herbicidal activity (percentage phytotoxicity) ECHCG PRE): 100%
pest or weed control at 250 g/ha (Lolium perenne (LOLPE); post-emergence, 360 h, Rate 250 g/ha, post-emergence, visual assessment 15 DAA, 100%=total damage, 0%=no damage, read-out: Post-emergence herbicidal activity (percentage phytotoxicity) LOLPE POST): 100%
pest or weed control at 250 g/ha (Lolium perenne (LOLPE); pre-emergence, 480 h, Rate 250 g/ha, pre-emergence, visual assessment 20 DAA, 100%=total damage, 0%=no damage, read-out: Pre-emergence herbicidal activity (percentage phytotoxicity) LOLPE PRE): 100%
